“Also recorded” adds a separate entry of the source.
Columns and labels:
CD4^+ T cells [1] = assay: Cytokine secretion by stimulated CD4+ T cells, ELISA; assay type: cell-based, human; settings: day 3 after stimulation
Source text: (§1) Cell activation and intracellular staining.
Enzyme-linked immunosorbent assay.

CD4^+ T cells [2] = assay: Cytokine gene expression in stimulated CD4+ T cells, TaqMan real-time PCR; assay type: cell-based, human; settings: 12 hours after activation
Source text: Quantification of mRNA expression levels by RT-PCR. RNA was isolated using QIAGEN RNeasy Micro Plus Kit (QIAGEN, Valencia, Calif.), following manufacturer's guidelines and converted to cDNA by reverse transcription (RT) with random hexamers and Multiscribe RT (TQMN, Reverse Transcription Reagents; Applied Biosystems, Foster City, Calif.). For mRNA gene expression assays, probes were purchased from Applied Biosystems (Table 2) and the reactions were set up following manufacturer's guidelines and run on a StepOne Real-Time PCR System (Applied Biosystems). Values are represented as the difference in Ct values normalized to β2-microglobulin for each sample as per the following formula: Relative RNA expression=(2^−dCt)×1000.

HIV-1NL-D = assay: HIV-1 in vitro infection of CD4+ T cells; assay type: cell-based; settings: treatment before infection, MOI 0.001
Protocol: Preparation of HIV-1 virus stocks. HIV-1 proviral DsRed-tagged DNA pNL-D (derived from the prototype HIV-1 proviral DNA pNL432) was kindly provided by Dr. Yasuko Tsunetsugu-Yokota. 293T cells were used to prepare viral stocks following published protocols with minor modifications. In brief, 293T cells were plated at 0.5×10^6/well in 12-well plates and transfected with 2 μg pNL-D using Lipofectamine 2000 (Invitrogen) for 48 hours. Culture supernatant was treated with benzonase (1U/ml) for 30 minutes at 37 C, cleared by filtration and titrated on 293T cells. Stocks were stored at −80 C.
HIV-1 in vitro infection. CD4^+ T cells were stimulated with anti-CD3 (1 μg/ml) and anti-CD28 (1 μg/ml) for 48 hours and subsequently infected with HIV-1 at a MOI of 0.001 (concentration within the physiological range). Viability and cytokine secretion was measured every 48 hours for a total of 11 days after infection.
For HIV-1 infection on TLR7-deficient cells, CD4^+ T cells were stimulated as above and transduced with the corresponding lentiviral particles. 48 hours after transduction, the cells were infected with HIV-1NL-D at a MOI of 0.001. Viability and frequency of HIV-1-infected cells were measured at different time points by LIVE/DEAD cell dye staining and fixation with 1% PFA (to avoid DsRed signal loss). For intracellular staining after infection, the cells were restimulated with PMA and Ionomycin in the presence of GolgiStop for 4 hours and the staining was performed as recommended by Grupillo et al.

CD4^+ T cells [3] = assay: Proliferation of CFSE-labeled CD4+ T cells stimulated with anti-CD3 and anti-CD28 in the presence of TLR ligands; assay type: cell-based, human; settings: compared to control
Source text: Cell isolation and FACS sorting of T cell populations. Peripheral blood mononuclear cells (PBMC) were isolated from healthy donors by Ficoll Hypaque gradient centrifugation. Total CD4^+ T cells were isolated by negative selection using CD4^+ T cell isolation kit (StemCell Technologies, Vancouver, BC) and stained for fluorescence-activated cell sorting (FACS) with the following antibodies: anti-CD45RO (clone UCHL1), CD45RA (clone H1100), CD25 (clone M-A251) (all from BD Biosciences) and CD127 (clone eBioRDR5) from eBioscience (San Diego, Calif.). The Treg (CD4^+CD25^hiCD127^low/neg) memory T cell (CD4^+CD45RA^−CD45RO^+CD25^low/neg+) and naïve T cell (CD4^+CD45RA^+CD45RO^−CD25^low/neg) populations were sorted on a FACS Aria (BD Biosciences). Unless specified, CD4^+ T cells used in the experiments were Treg-depleted CD4^+ T cells and they were sorted as CD4^+CD25^pos/lowCD127^+. The purity of the sorted CD4^+ T cell population was >98% as assessed by CD3 and CD4 staining after sort. CD14^+ cells were isolated by positive selection using EasySep™ Human CD14 Positive Selection Kit (StemCell Technologies).
as §1
While examining the costimulatory role of TLR on CD4^+ T cells, it was unexpectedly discovered that entry of CD4^+ cells into cell cycle with T cell receptor cross-linking and anti-CD28 was blocked by TLR7 engagement. Specifically, CD4^+ T cells were stimulated with anti-CD3 and anti-CD28 in the presence of different TLR agonists followed by analysis of proliferation and cytokine secretion.

NFAT1 = NFAT1 dephosphorylation, Western blot; assay type: cell-based, human; settings: 0, 45 and 90 minutes; confirmed with phospho-specific antibody, 40 minutes
Protocol: Western blotting. Total protein extracts were isolated with M-PER protein extraction kit (Thermo Scientific) and quantified with a BCA kit (Thermo Scientific). 20 μg of protein extract were loaded per lane, separated on a 10% SDS-PAGE gel and transferred to a nitrocellulose membrane. anti-NFAT1 and anti-β-actin were obtained from Cell Signaling Technology. Anti-pNFAT1 (Ser213/217/229) antibody was obtained from Santa Cruz Biotechnology (Dallas, Tex.). Primary antibodies were detected by secondary anti-rabbit-HRP-conjugated (Cell Signaling Technology) and images were obtained in a CCD camera instrument. Bands were quantified with QuantityOne software.
An immediate consequence of increased concentration of intracellular calcium is the activation of the nuclear factor of activated T-cells (NFAT1), a transcription factor that is highly phosphorylated in resting cells and becomes dephosphorylated by the calcium/calmodulin-dependent phosphatase calcineurin when the concentration of intracellular calcium is increased. To examine whether IMQ stimulation induced the dephosphorylation of NFAT1, we stimulated CD4^+ T cells with IMQ and purified total protein extracts at 0, 45 and 90 minutes (FIG. 25A).

CD4^+ T cells [4] = assay: Expression of activation markers on stimulated CD4+ T cells; assay type: cell-based, human; settings: 48 hours after activation
Source text: as §1

Compound: CC(C)Cn1cnc2c(N)nc3ccccc3c21 [Imiquimod]
- IFNγ secretion (CD4^+ T cells [1]): dramatically reduced
- IL-2 secretion (CD4^+ T cells [1]): decrease
- IL-4 secretion (CD4^+ T cells [1]): decrease
- IL-17 secretion (CD4^+ T cells [1]): dramatically reduced
- IFNγ secretion (CD4^+ T cells [1]; listed as IMQ): decrease
- IL-17 secretion (CD4^+ T cells [1]; listed as IMQ): decrease
- induction of IFNγ gene expression (CD4^+ T cells [2]): significant decrease
- induction of IL-2 gene expression (CD4^+ T cells [2]): significant decrease
- induction of IL-4 gene expression (CD4^+ T cells [2]): significant decrease
- frequency of HIV-1-infected CD4+ T cells (HIV-1NL-D): directly correlated with the concentration of IMQ used
- proliferation of CD4+ T cells (frequency of proliferating cells) (CD4^+ T cells [3]): dramatically reduced
- phosphorylation state of NFAT1 (NFAT1): dephosphorylated
- expression of activation marker CD25 (CD4^+ T cells [4]): inhibited
- expression of activation marker CD69 (CD4^+ T cells [4]; listed as IMQ): inhibited; also recorded: decrease
- expression of activation marker CD137 (CD4^+ T cells [4]; listed as IMQ): inhibited; also recorded: decrease
